Measurements from publication PMC2919388, “A Screening Pipeline for Antiparasitic Agents Targeting Cryptosporidium Inosine Monophosphate Dehydrogenase” (PLoS Neglected Tropical Diseases, 2010).
Like-named read-outs stand apart in the source and are kept apart here.

Experiments:
C. parvum = experiment: High-content imaging C. parvum growth assay (FITC-VVL); format: cell-based, Cryptosporidium parvum; conditions: for EC50: Cryptosporidium parvum, HCT-8, 48 h, growth in HCT-8 cells, 48 hours; for potency relative to paromomycin: anticryptosporidial activity
Description: The human ileocecal adenocarcinoma epithelial cell line, HCT-8, was used to support C. parvum infection in vitro. HCT-8 cells were maintained in RPMI-1640 (Hyclone) supplemented with 10% FBS, 1 mM sodium pyruvate, 50 U/m penicillin, 50 µg/ml streptomycin, and amphotericin B. Cryptosporidium parvum oocysts were a kind gift from either Dr. Mead (Emory University) or Dr. Kissinger (University of Georgia). HCT-8 cells (2×10^5) were seeded into black, optical quality, thin bottom, 96-well plates (DB Falcon) to achieve a 70% confluent monolayer on the day of infection. To facilitate oocyst excystation, a procedure described by Gut et al., was followed. Briefly, oocysts were washed twice with 1 ml of PBS (pH 7.2), incubated for 10 minutes at 37°C in 1 ml 10 mM of HCl and then incubated for a further 10 minutes in 0.2 ml of 200 µM sodium taurocholate at 15°C [40]. This oocyst suspension was diluted directly with DMEM (Hyclone) supplemented with 2% FBS, 50 U/ml penicillin, 50 µg/ml streptomycin, amphotericin B and 0.2 mM L-glutamine (infection medium) to inoculate host cell monolayers at 5×10^5 oocysts per well. Host cell monolayers were incubated for 3 hours at 37°C prior to removal of unexcysted oocysts by aspiration and PBS wash. Infection medium was then added to the monolayers and infection was allowed to progress for 48 hours.
The VVL IFA was performed in a 96-well format. Following 48 hours of culture C. parvum infected HCT-8 cells were washed with PBS and fixed with 0.2 ml/well of 3% paraformaldehyde/PBS, permeabilized with 0.25% Triton-X-100/PBS and blocked with 4% BSA/PBS. 0.1 ml of fluorescein (FITC)-conjugated VVL (Vector Labs 0.5 µg/ml) in 1% BSA/PBS was applied to wells and incubated for 45 minutes. The plates were washed twice with 200 µl/well of PBS. In the first wash DAPI was included at 0.1 µg/ml. Finally 200 µl/well of PBS was added to the plates prior to storage at 4°C protected from light.
Confocal images were acquired using a BD Biosciences Bioimager P435. The instrument was programmed to automatically change position and focus, capture montage images of 9–16, 40× fields per well, and then compress and save the image files. Object finding algorithms were developed for the recognition of FITC-VVL labelled C. parvum parasites and DAPI labelled host cell nuclei using Attovision Software (BD Biosciences). Briefly, to identify FITC-VVL labelled parasites, the object finding algorithm included, a flat field correction, a polygon shape setting, a 3×3 rolling ball filter, manual pixel intensity thresholding (100 min – 4095 max), and minimum and maximum object size cut-offs of 5 pixels and 350 pixels respectively. The algorithm optimised for finding DAPI labelled host cell nuclei also included flat field correction and polygon shape setting, but applied a 25×25 rolling ball filter which is more suitable for larger objects, an automated pixel intensity threshold, minimum and maximum object size cut-offs of 200 pixels and 4000 pixels respectively, and a watershed step with an erosion factor of 8 to aid in the separation of adjacent densely packed nuclei. Note that the intensity and area size cut off exclude detection of the much smaller parasite nuclei (the human genome is three hundred times larger than the C. parvum genome).
The object finding analysis steps described above recorded the number and area of objects per montage image. The output files along with a plate map file were then passed to an automated analysis pipeline (Pipeline Pilot Software, Accelrys) to calculate the mean number of parasites, the ratio of parasite number to host cell nuclei number, the mean area of parasites and host cell nuclei by well, and the percentage growth by treatment as compared to the no drug control. These analyses were exported in graphical format for each plate and the numerical values tabulated in html format. […]

T. gondii-CpIMPDH = experiment: Fluorescent T. gondii growth assay, CpIMPDH reporter strain; format: cell-based, Toxoplasma gondii; conditions: for Selectivity = EC50(T. gondii-wild-type)/EC50(T. gondii-CpIMPDH): Figure 5 Sel
Excerpt: (§1) Wild-type T. gondii and T. gondii-ΔHXGPRT parasites were transfected with plasmid ptubYFPYFsagCAT [37] which drives constitutive cytoplasmic expression of two copies of the yellow fluorescent protein. Similarly, plasmid pCTR2T [38] was transfected into T. gondii-CpIMPDH resulting in constitutive cytoplasmic expression of a tandem of the tomato variant of the red fluorescent protein [39]. Fluorescent parasites were selected and cloned by cell sorting using a MoFlo Legacy instrument (Beckman Coulter, Inc). Growth of fluorescent clones was monitored in 96 well plates as previously described. Briefly, fluorescence was read daily with a SpectraMax M22/M2e (Molecular Devices) plate reader (Ex 485, Em 530) for 6–7 days. For each of the three fluorescent T. gondii clones percent growth inhibition was calculated on a day within the exponential phase of growth for the purpose of determining an IC50 for each compound.
To facilitate screening of antiparasitic activity, we constructed a T. gondii reporter parasite that mirrors the Cryptosporidium purine metabolism. Figure 1 summarizes the main differences between the two parasites in this pathway. We started with a T. gondii knockout mutant that, like C. parvum, lacks the ability to salvage xanthine and guanine via HXGPRT (T. gondii-ΔHXGPRT [41]) and introduced the CpIMPDH gene under the control of a T. gondii promoter. Next the native T. gondii IMPDH gene was disrupted by replacing the entire coding sequence with a chloramphenicol acetyl transferase cassette using a new cosmid-based gene targeting approach. […] This manipulation created strain T. gondii-CpIMPDH-ΔHXGPRT-ΔTgIMPDH. Lastly, we introduced a fluorescent protein cassette and isolated stable transgenic parasites by cell sorting. The resulting strain is referred to as T. gondii-CpIMPDH. […] We similarly engineered fluorescent versions of wild-type T. gondii and T. gondii-ΔHXGPRT to serve as controls.
(§2) Supplementary file pntd.0000794.s002.tif: Figure S2 Obtaining an EC50 value for T. gondii growth. Fluorescent T. gondii parasites are seeded into 96-well plates and spiked with test compound. Fluorescence is measured daily with a SpectraMax M22/M2e (Molecular Devices) plate reader for 6–7 days. The fluorescence readings on a day during the exponential phase of the growth curve, for example day 4 in A, are used to calculated percent growth inhibition. These values are fitted using the 4 parameter model y = D+(A–D)/(1+(x/C)^B) where D is the minimum value, A is the maximum value, C is the EC50 and B is the Hill coefficient, using the SoftMax Pro v5 software, as illustrated in B. The absolute EC50 is recorded at the x intercept where y = 50. (0.33 MB TIF) Click here for additional data file.

wild-type T. gondii = experiment: Fluorescent T. gondii growth assay, wild-type strain; format: cell-based, Toxoplasma gondii
Excerpt: as §1, §2

CpIMPDH = CpIMPDH (Cryptosporidium parvum, UniProt Q8T6T2); conditions: cited from earlier work
HCT-8 cells = experiment: Fluorescent HCT-8 host cell growth assay; format: cell-based, human; conditions: for activity at 25 µM: Homo sapiens, HCT-8, compound at 25 μM, relative to DMSO alone; for effect on host cell (HCT-8) growth: in words
Description: HCT-8 cells were transfected with plasmid pmaxGFP (Amaxa) using Lipofectamine (Invitrogen). Fluorescent lines were then selected and cloned using cell sorting. Confluent monolayers of pmaxGFP expressing cells were harvested from T75 flasks and passed through a 40 µm cell strainer. Cells were seeded at 4000 cells per well into black, optical quality, thin bottom, 96-well plates. All test compounds were diluted in DMSO as described. The fluorescence was read daily with a SpectraMax M22/M2e (Molecular Devices) plate reader (Ex 485, Em 530) for 6–7 days. Percent inhibition was calculated on a day within the exponential phase of growth.

T. gondii-ΔHXGPRT = experiment: Fluorescent T. gondii growth assay, ΔHXGPRT strain; format: cell-based; conditions: Toxoplasma gondii, read-out: T. gondii model EC50 ΔHXGPRT, T. gondii-ΔHXGPRT
Excerpt: as §1, §2

[1] = Toxoplasma gondii, wild-type T. gondii, no added xanthine, read-out: T. gondii model EC50 WT
[2] = wild-type T. gondii, no added xanthine, read-out: T. gondii model EC50 WT
[3] = Toxoplasma gondii, read-out: T. gondii model EC50 CpIMPDH, T. gondii-CpIMPDH, absence of xanthine

CpIMPDH, sequence (Q8T6T2 whole entry): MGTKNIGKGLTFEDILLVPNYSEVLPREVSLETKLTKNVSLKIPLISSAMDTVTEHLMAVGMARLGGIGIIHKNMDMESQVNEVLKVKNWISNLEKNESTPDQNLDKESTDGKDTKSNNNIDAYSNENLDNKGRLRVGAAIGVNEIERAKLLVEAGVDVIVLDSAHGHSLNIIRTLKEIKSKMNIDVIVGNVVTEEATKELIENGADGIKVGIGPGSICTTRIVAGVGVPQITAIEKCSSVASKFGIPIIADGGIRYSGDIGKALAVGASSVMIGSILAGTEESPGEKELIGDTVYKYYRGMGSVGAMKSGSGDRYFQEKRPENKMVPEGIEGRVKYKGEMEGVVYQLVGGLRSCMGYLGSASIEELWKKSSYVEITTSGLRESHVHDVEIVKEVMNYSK

| Compound | EC50 (C. parvum) [µM] | Selectivity = EC50(T. gondii-wild-type)/EC50(T. gondii-CpIMPDH) (T. gondii-CpIMPDH) | EC50 (T. gondii-CpIMPDH; read-out: T. gondii model EC50 CpIMPDH, T. gondii-CpIMPDH, absence of xanthine) [µM] | EC50 (wild-type T. gondii; [1]) [µM] | EC50 (wild-type T. gondii; [2]) [µM] | IC50 (CpIMPDH; read-out: CpIMPDH Inhibition IC50 - BSA) [µM] | activity at 25 µM (HCT-8 cells) [%] | effect on host cell (HCT-8) growth (HCT-8 cells) | EC50 (T. gondii-CpIMPDH; [3]) [µM] | EC50 (T. gondii-ΔHXGPRT) [µM] | IC50 (CpIMPDH; in the presence of BSA, values marked c, read-out: CpIMPDH Inhibition IC50 + BSA) [µM] | IC50 (CpIMPDH; without BSA, values marked c, read-out: CpIMPDH Inhibition IC50 - BSA) [µM] | potency relative to paromomycin (C. parvum) [×] | selectivity for the T. gondii-CpIMPDH parasite over wild-type T. gondii (T. gondii-CpIMPDH) [fold] | inhibition of HCT-8 cell growth (HCT-8 cells; at 12.5 µM and 25 µM) | EC50 (wild-type T. gondii; Toxoplasma gondii, media supplemented with xanthine (0.33 mM), read-out: EC50 wild-type T. gondii with xanthine) [µM] | CpIMPDH inhibition by MPA (CpIMPDH; at concentrations active against TgIMPDH) |
| --- | --- | --- | --- | --- | --- | --- | --- | --- | --- | --- | --- | --- | --- | --- | --- | --- | --- |
| CC(Oc1ccc(Cl)c2ccccc12)c1cn(-c2ccc(Cl)cc2)nn1 (stereo not shown) [Compound A82] | 6 to 13 | 0.9 | ≤ 10 | 5 ± 2 | ≤ 10 | 0.09 ± 0.03 | 108 ± 2 | do not inhibit host cell growth | – | – | – | – | – | – | – | – | – |
| CC(Oc1ccnc2ccccc12)c1cn(-c2ccc(Cl)cc2)nn1 (stereo not shown) [Compound A89] | < 13 | 14 | – | 4.9 ± 0.9 | – | – | 43 ± 2 | – | 0.4 ± 0.2 | 6 ± 2 | – | – | – | – | – | – | – |
| CC(Oc1ccnc2ccccc12)c1cn(-c2ccc(Cl)c(Cl)c2)nn1 (stereo not shown) [Compound A90] | 6 to 13 | 1.5 | – | 5 ± 3 | ≤ 10 | – | 77 ± 5 | do not inhibit host cell growth | – | – | – | – | – | – | – | – | – |
| CC(Oc1ccnc2ccccc12)c1cn(-c2ccc(C#N)c(Cl)c2)nn1 (stereo not shown) [Compound A92] | 3 to 6 | 1.6 | – | 9 ± 2 | – | – | 47 ± 1 | – | 5 ± 1 | 8 ± 4 | – | – | – | – | – | – | – |
| C[C@@H](Oc1cncc2ccccc12)c1cn(-c2ccc(Cl)cc2)nn1 [Compound A98] | 3 to 6 | > 12 | – | 2.8 ± 0.1 | – | – | 65 ± 7 | – | < 0.2 | 2.3 ± 0.6 | 0.03 ± 0.001 | 0.009 ± 0.001 | – | – | – | – | – |
| CC(Oc1cc[n+]([O-])c2ccccc12)c1cn(-c2ccc(Cl)c(Cl)c2)nn1 (stereo not shown) [Compound A103] | < 0.8 | 36 | – | 19 ± 4 | ≥ 20 | – | 33 ± 6 | – | 0.5 ± 0.4 | 17 ± 4 | – | – | > 100 | ≥ 36 | inhibit HCT-8 cell growth significantly | – | – |
| C[C@@H](Oc1ccnc2ccccc12)c1cn(-c2ccc(Cl)c(Cl)c2)nn1 [Compound A105] | 6 to 13 | 2.9 | – | – | – | – | 81 ± 13 | do not inhibit host cell growth | – | – | – | – | – | – | – | – | – |
| C[C@H](Oc1ccnc2ccccc12)c1cn(-c2ccc(Cl)c(Cl)c2)nn1 [Compound A107] | < 13 | 3.1 | – | 6 | – | – | 64 ± 16 | – | 2.4 | 7 | – | – | – | – | – | – | – |
| C[C@H](Oc1ccnc2ccccc12)c1cn(-c2ccc(C#N)c(Cl)c2)nn1 [Compound A108] | 12 to 25 | 1.3 | – | 5 | – | – | 47 ± 14 | – | 3.9 | – | – | – | – | – | – | – | – |
| C[C@@H](Oc1cc[n+]([O-])c2ccccc12)c1cn(-c2ccc(Cl)cc2)nn1 [Compound A110] | < 0.8 | > 120 | – | 23 ± 2 | – | – | 94 ± 12 | – | < 0.2 | > 25 | – | – | > 100 | ≥ 36 | – | – | – |
| COc1c(C)c2c(c(O)c1C/C=C(\C)CCC(=O)O)C(=O)OC2 [MPA, mycophenolic acid, reference compound] | – | – | – | 2.6 | – | – | – | – | > 65 | 0.29 | – | – | – | – | – | ≥ 78 | not inhibited |
| CCCC(=O)[O-].[Na+] [sodium butyrate, reference compound] | – | – | – | – | – | – | – | did inhibit HCT-8 growth in a dose-dependent manner | – | – | – | – | – | – | – | – | – |
